Laboratory results taken from PMC5947527 (Chemical Science, 2015).
Non-standard residues stand in square brackets, D forms with d. Residues, ends and D or L forms follow the SMILES beside them. *: point of attachment. NBD = O=[N+]([O-])c1ccc(*)c2nonc12; Nle = CCCC[C@H](N)C(=O)O; Ahx = NCCCCCC(=O)O

Assay: Stability in ARDS bronchoalveolar lavage fluid (MALDI-TOF MS)
Assay type: in vitro ADME, human
Conditions: for stability in ARDS BALF: human ARDS BALF pooled from three patients vs PBS, 5 and 30 min
Description: To determine the ability of UBI-3 to image bacteria in the continued presence of a complex inflammatory environment, bacteria were labelled with UBI-3 in the presence of broncho-alveolar lavage fluid (BALF) retrieved from ventilated ICU patients with Acute Respiratory Distress Syndrome (ARDS). ARDS BALF was utilised as ARDS is a severe life threatening pulmonary syndrome, characterized by a massive proteolytic and oxidative inflammatory environment within the distal alveolar region.[14] […] To design out susceptible amino acid cleavage points, a number of modifications were made (Table 1) and the functional consequences assessed. The chemical approaches pursued to improve resistance to degradation included replacing amino acids at the cleavage positions with non-natural amino acids such as N-methyl or D-amino acids,[15] and cyclisation of the peptide,[16] which could have the added benefit of enhancing affinity towards bacterial membrane.[17]
The Arg–Arg bonds were identified as the prominent position of degradation (Fig. 5) and Compounds UBI-4–9 (Table 1) were synthesised with a variety of substitutions around the degradation sites. The susceptible peptide bonds at P1–P2 and P7–P8 were blocked using N-MeArg (UBI-4), and to further mask these positions, a long polyethylene glycol (PEG) chain and/or a D-amino acid were positioned at the carboxylic and/or amino termini (UBI-5–7).
We hypothesized that cyclisation of the sequence would allow for greater stability and also improve bacterial affinity and therefore cyclic variants of UBI-3 were synthesized (UBI-10 and UBI-11), which were both found to be stable in BALF for 5 minutes (Fig. 7 and S3 ESI ^†). […] However, these studies also highlighted the degradation of UBI-10 at 10 minutes, guiding the temporal constraints of Smartprobe delivery and optical imaging.
Fig. 7 UBI-10 remains stable in ARDS BALF at 5 minutes. (A) Structure of UBI-10 with breakdown products in ARDS BALF. […] TEXT PRINTED IN THE PICTURE: UBI-10: Molecular Weight: 2118.41 | Fragment A: Molecular Weight: 1923.18 | Fragment B: Molecular Weight: 1980.23 DOUBTS OF THE COPYIST ABOUT THIS PICTURE: UBI-10, Molecular Weight: very small print, 2118.41 is the best reading; the digits 8 and 4 are uncertain / Fragment A, Molecular Weight: very small print, 1923.18 is the best reading; the digits 9, 3 and 8 are uncertain / Fragment B, Molecular Weight: very small print, 1980.23 is the best reading; the digits 9, 8 and 3 are uncertain […]
Supplementary Information
A Labelled-Ubiquicidin Antimicrobial Peptide for Immediate In Situ Optical Detection of Live Bacteria in Human Alveolar Lung Tissue
Ahsan R Akram, Nicolaos Avlonitis, Annamaria Lilienkampf, Ana M Perez-Lopez, Neil McDonald, Sunay V Chankeshwara, Emma Scholefield, Christopher Haslett, Mark Bradley & Kevin Dhaliwal.
Figure S1: MALDI-TOF MS spectra for a stability study of UBI-3 in PBS and in ARDS BALF […]
Figure S2. MALDI-TOF MS spectra of modified analogues UBI-4 to UBI-9 in Phosphate Buffered Saline and ARDS BALF over a period of 5 and 30min.
Figure S3: MALDI-TOF MS spectra of UBI-11 in Phosphate Buffered Saline vs ARDS BALF […]
Figure S4. Quantified fluorescence of confocal microscopy images of the compounds UBI-3, UBI-5 and UBI-10 on three bacteria and fluorescence retention following a PBS wash.
Figure S5: Fibered confocal fluorescence microscopy imaging of human lung and Calcein AM stained Methicillin sensitive S. aureus.
Experimental Details including Tables M1-4, Figure M1 and HPLC Chromatograms.
(also on this page, place not known: Electronic Supplementary Material (ESI) for Chemical Science. This journal is © The Royal Society of Chemistry 2015)
(1 picture or pasted object on this page, not shown here) […]
BALF Retrieval: Bronchoalveolar lavage was performed in the Intensive Care Unit (ICU), as previously described. S5 Pooled samples from three patients were used for stability assays. […]
Exposure to 488 nm light was limited to 5% […]

Row | SMILES | stability in ARDS BALF (MALDI-TOF MS) | time of degradation of the peptide in ARDS BALF (human ARDS BALF, MALDI-TOF MS) [min] | time stable in ARDS BALF (human ARDS BALF, MALDI-TOF MS) [min] | time at which degradation products form in ARDS BALF (human ARDS BALF, MALDI-TOF time course) [min]
1 | CCCC[C@H](NC(=O)[C@H](CCCNC(=N)N)NC(=O)[C@H](CCCNC(=N)N)NC(=O)[C@H](CCCCN)NC(=O)[C@H](C)NC(=O)[C@H](CCCNC(=N)N)NC(=O)CNC(=O)[C@@H](NC(=O)CCCCCNc1ccc([N+](=O)[O-])c2nonc12)[C@@H](C)O)C(=O)N[C@@H](CCC(N)=O)C(=O)N[C@@H](Cc1ccc(O)cc1)C(=O)N[C@@H](CC(N)=O)C(=O)N[C@@H](CCCNC(=N)N)C(=O)N[C@@H](CCCNC(=N)N)C(N)=O [UBI-3] ({NBD-Ahx}-TGRAKRR[Nle]QYNRR-NH2) | Unstable in ARDS BALF | < 5 |  | 
2 | CCCC[C@@H]1NC(=O)[C@H](CCCNC(=N)N)NC(=O)[C@H](CCCNC(=N)N)NC(=O)[C@H](CCCCN)NC(=O)[C@H](C)NC(=O)[C@H](CCCNC(=N)N)NC(=O)CNC(=O)[C@H]([C@@H](C)O)NC(=O)[C@@H](NC(=O)CCCCCNc2ccc([N+](=O)[O-])c3nonc23)CCCCNC(=O)CNC(=O)[C@H](CCCNC(=N)N)NC(=O)[C@H](CCCNC(=N)N)NC(=O)[C@H](CC(N)=O)NC(=O)[C@H](Cc2ccc(O)cc2)NC(=O)[C@H](CCC(N)=O)NC1=O [UBI-10] | Improved stability in ARDS BALF |  | 5 | 10
